Read-outs that look alike come from different tables or passages of the source.
Assays:
BIKE = BIKE (Homo sapiens, UniProt Q9NSY1); assay: biochemical; type: binding
GAK = target: T1, GAK (Homo sapiens, UniProt O14976); assay: biochemical; type: binding
T1 sequence (O14976 1-1311): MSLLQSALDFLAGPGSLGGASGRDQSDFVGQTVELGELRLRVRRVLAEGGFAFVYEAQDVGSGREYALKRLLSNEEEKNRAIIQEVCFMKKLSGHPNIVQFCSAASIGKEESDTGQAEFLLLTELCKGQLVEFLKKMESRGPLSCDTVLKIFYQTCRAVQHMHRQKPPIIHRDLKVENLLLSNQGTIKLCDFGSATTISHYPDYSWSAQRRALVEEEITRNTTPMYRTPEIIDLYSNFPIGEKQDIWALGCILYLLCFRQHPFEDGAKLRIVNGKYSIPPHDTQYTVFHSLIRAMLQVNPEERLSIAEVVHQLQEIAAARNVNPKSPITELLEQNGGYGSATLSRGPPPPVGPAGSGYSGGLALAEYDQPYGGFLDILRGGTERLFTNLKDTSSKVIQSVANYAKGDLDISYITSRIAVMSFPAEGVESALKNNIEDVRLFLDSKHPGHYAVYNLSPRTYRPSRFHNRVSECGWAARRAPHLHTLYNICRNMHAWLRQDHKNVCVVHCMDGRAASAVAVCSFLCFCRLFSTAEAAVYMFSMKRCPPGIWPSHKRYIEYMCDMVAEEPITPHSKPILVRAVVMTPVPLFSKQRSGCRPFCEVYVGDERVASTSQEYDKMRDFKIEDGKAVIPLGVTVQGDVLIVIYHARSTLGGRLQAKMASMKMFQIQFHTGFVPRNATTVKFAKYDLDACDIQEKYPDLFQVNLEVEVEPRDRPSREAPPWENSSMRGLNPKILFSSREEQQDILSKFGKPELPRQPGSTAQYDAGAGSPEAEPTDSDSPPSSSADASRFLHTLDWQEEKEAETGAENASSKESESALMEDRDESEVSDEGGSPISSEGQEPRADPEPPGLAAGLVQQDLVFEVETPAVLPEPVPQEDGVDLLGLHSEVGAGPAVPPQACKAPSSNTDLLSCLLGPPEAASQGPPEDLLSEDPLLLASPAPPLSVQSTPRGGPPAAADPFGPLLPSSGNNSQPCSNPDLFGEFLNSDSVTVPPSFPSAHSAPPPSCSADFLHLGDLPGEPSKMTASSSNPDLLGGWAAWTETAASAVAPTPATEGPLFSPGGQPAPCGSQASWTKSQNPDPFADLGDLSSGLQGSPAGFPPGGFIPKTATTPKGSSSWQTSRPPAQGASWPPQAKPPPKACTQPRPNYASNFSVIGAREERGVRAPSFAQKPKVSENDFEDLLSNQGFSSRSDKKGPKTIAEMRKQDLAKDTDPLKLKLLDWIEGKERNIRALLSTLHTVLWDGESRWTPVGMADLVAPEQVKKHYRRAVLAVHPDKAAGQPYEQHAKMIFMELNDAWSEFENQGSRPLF

STK16 = STK16 (Homo sapiens, UniProt O75716); assay: biochemical; type: binding
STK16, sequence (O75716 whole entry): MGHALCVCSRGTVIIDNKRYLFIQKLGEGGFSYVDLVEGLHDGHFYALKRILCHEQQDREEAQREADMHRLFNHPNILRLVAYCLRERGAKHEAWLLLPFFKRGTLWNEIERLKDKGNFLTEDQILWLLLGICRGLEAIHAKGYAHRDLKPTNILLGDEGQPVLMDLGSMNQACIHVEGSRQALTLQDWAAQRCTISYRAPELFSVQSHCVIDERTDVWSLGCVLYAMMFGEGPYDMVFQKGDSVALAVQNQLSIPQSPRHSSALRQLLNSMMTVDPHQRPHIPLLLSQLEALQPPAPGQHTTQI

AAK1 = AAK1 (Homo sapiens, UniProt Q2M2I8); assay: biochemical
AAK1, sequence (Q2M2I8 whole entry): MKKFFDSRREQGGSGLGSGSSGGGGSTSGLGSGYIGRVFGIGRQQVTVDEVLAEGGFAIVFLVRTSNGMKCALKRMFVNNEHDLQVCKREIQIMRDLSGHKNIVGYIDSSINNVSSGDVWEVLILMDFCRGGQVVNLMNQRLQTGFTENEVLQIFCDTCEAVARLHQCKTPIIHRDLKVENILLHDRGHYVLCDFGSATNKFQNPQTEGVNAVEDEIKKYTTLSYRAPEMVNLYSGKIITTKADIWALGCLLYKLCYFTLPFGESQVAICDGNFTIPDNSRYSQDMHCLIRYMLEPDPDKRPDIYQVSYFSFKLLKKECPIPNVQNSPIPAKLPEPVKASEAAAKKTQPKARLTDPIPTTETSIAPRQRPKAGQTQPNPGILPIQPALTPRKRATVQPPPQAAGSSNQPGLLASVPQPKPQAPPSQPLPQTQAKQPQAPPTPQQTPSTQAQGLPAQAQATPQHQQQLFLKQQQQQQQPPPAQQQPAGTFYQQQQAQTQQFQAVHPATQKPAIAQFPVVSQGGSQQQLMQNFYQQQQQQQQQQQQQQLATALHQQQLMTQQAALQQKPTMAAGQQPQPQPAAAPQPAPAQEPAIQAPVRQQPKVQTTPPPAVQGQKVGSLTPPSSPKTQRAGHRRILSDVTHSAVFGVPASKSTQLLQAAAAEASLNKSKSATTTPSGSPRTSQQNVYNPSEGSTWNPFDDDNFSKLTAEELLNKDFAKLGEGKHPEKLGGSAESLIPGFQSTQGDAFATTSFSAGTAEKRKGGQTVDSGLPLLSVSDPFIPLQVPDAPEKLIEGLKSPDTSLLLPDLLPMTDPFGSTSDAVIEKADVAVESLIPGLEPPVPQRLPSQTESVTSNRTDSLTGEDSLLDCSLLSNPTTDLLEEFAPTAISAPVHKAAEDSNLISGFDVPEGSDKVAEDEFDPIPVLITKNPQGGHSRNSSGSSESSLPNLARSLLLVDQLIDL

[1] = tested on: primary human liver spheroids; assay: Viability of primary human liver spheroids (intracellular ATP); type: cell-based; conditions: up to concentrations approximately eightfold higher than clinical AUC at 4 mg ([…]), n = 10
IL‐6 = conditions: patients with active RA, inadequate response to methotrexate, P < 0.05
JAK2 = conditions: ref Fridman et al, 2010; cited from earlier work
[2] = design: method as in Genovese et al, 2019; conditions: RA patients, 10,127 patients-year of exposure, up to 6.9 years; ref Genovese et al, 2019; cited from earlier work
[3] = cited from earlier work
SARS‐CoV‐2 [4] = tested on: SARS‐CoV‐2
SARS‐CoV‐2 [5] = type: cell-based; conditions: pretreatment 24 h with 400 and 800 nM, MOI 0.1, 48 h after infection, P < 0.05
[6] = tested on: cytokine‐induced JAK/STAT signaling; assay: Cytokine-stimulated pSTAT inhibition in human leukocyte subpopulations (flow cytometry); type: cell-based; conditions: human CD4+ T cells, CD8+ T cells, NK cells, monocytes; 1 h preincubation, 15 min cytokine stimulation
Experimental: Leukocyte preparation and experimental design were largely performed as previously described (McInnes et al, 2019). Whole blood samples from healthy donors (N = 6) were apheresed, and leukocyte‐enriched fractions were transferred to the company Primity Bio (Fremont, CA, USA). […] Cytokines were used at the following concentrations: IL‐2 (4 ng/ml), IL‐3 (12 ng/ml), IL‐4 (350 pg/ml), IL‐6 (1.5 ng/ml), IL‐10 (12 ng/ml), IL‐15 (850 pg/ml), IL‐21 (200 pg/ml), IFN‐γ (100 pg/ml), G‐CSF (5 ng/ml), and GM‐CSF (5 pg/ml). The choice of cytokine concentrations and incubation conditions was optimized in order to ensure consistent signaling in alternate cell types and pSTAT readouts. After stimulation, cells were fixed, permeabilized, and fluorescence‐barcoded, and multicolor flow cytometry was performed as previously described to quantify STAT phosphorylation in gated leukocyte subpopulations (McInnes et al, 2019). For a given case (stimulation, cell type, and pSTAT combination), the IC50 was determined if there was a consistent response to the stimulus as described in the statistical analysis section. The primary pSTAT observed for each stimulus is reported. […]
IC50 values were determined by analyzing the mean fluorescence intensity (MFI) of cytokine‐stimulated samples in the presence of the designated concentration of compound. […]

BIKE, sequence (Q9NSY1 whole entry): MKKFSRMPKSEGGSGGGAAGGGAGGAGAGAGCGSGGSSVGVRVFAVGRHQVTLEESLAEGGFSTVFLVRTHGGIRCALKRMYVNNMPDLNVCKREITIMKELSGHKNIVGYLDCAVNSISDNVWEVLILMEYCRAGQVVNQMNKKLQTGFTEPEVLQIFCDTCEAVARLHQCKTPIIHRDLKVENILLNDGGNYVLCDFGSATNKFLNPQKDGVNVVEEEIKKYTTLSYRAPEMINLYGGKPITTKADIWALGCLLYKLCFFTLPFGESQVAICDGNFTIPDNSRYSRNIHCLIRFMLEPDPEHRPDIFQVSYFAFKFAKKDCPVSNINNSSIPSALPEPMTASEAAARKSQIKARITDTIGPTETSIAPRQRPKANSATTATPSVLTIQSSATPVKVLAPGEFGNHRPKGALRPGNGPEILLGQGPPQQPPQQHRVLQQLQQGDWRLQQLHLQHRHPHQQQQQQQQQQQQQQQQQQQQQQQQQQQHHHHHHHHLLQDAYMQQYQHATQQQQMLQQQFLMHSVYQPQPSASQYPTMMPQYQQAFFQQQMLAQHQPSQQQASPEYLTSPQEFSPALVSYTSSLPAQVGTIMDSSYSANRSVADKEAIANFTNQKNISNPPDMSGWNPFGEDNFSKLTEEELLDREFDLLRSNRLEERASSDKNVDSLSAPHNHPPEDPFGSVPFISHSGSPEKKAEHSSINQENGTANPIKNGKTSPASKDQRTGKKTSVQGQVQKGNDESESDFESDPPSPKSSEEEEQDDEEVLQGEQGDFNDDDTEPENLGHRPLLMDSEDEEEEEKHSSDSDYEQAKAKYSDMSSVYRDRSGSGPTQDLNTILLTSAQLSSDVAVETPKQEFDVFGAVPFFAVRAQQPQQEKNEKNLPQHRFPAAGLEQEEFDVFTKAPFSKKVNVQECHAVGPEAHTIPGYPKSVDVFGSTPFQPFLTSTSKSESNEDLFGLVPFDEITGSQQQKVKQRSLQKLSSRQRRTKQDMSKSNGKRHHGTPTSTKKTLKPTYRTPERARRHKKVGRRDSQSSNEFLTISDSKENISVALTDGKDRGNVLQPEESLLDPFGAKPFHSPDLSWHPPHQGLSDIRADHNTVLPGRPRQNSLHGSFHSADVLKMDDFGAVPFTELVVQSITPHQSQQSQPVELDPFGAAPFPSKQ

Compound	Kd (BIKE)	Kd (GAK; read-out: GAK Kd)	Kd (STK16)	Kd (AAK1)	liver cell injury / spheroid viability [1]	change from baseline in plasma IL-6 at week 12 (IL‐6)	binding affinity for JAK2 (JAK2)	incidence rate of serious infection [2]	unbound fraction of free bioavailable drug, AUC ([3]; RA patient sera, baricitinib 2 mg, ref data on file)	half-life ([3]; RA patients, ref Eli Lilly and Company, 2019)	main clearance mechanism ([3]; ref Eli Lilly and Company, 2019)	clinical outcome of case series (SARS‐CoV‐2 [4]; 4 mg (Patients A, C, D) or 2 mg (Patient B) once daily oral, 10-12 days)	tolerability (SARS‐CoV‐2 [4]; four patients, 2 or 4 mg once daily oral, 10-12 days)	liver aminotransferases (SARS‐CoV‐2 [4]; four patients, during baricitinib treatment)	time to improvement of liver enzyme elevations (SARS‐CoV‐2 [4]; without interrupting baricitinib treatment)	reduction of viral load (SARS‐CoV‐2 [5])	signaling of cytokines implicated in COVID-19 infection (IL-2, IL-6, IL-10, IFN-γ, G-CSF), pSTAT inhibition [6]	Kd (GAK)
NC(=O)Nc1cc(-c2cccc(F)c2)sc1C(=O)N[C@H]1CCCNC1 [AZD7762]	13 nM	1.4 nM	1900 nM	2.9 nM	–	–	–	–	–	–	–	–	–	–	–	–	–	–
CCS(=O)(=O)N1CC(CC#N)(n2cc(-c3ncnc4[nH]ccc34)cn2)C1 [Baricitinib]	–	–	–	–	did not result in liver cell injury	significant reduction	5.7 nM	2.8 /100 patient‐years	326 nM	approximately 12 h	renal elimination	improved lung function, resolution of their illness, and reductions in viral load, plasma IL‐6, ferritin, and CRP levels	well‐tolerated	Transient increases	≤ 72 h	30–40%	inhibited signaling	–
CC[C@@H]1CN(C(=O)NCC(F)(F)F)C[C@@H]1c1cnc2cnc3[nH]ccc3n12 [Upadacitinib]	11000 nM	–	9300 nM	–	–	–	–	–	–	–	–	–	–	–	–	–	–	2200 nM
